Results from patent publication US8003785B2 (Takeda Pharmaceutical Company Limited, priority 2008, dated 2011).

What follows are molecules tested against T1, PLK1 (Homo sapiens, UniProt P53350) (assay: Biochemical Characterization Assay: HTRF kinase assay, GST-PLK1 phosphorylation of GST-p53). Conditions: GST-PLK1, GST-p53 substrate, ATP.
T1 construct: Full-length, active GST-PLK1 is purified from Sf9 insect cells; made in house; host or cells: Sf9 insect cells
Method: Biochemical Characterization Assay
Full-length, active GST-PLK1 is purified from Sf9 insect cells, and full-length GST-p53 is purified from E. coli. Anti-phospho p53 antibody is from Cell Signaling Technology. Europium-conjugated anti-rabbit antibody is from PerkinElmer Life and Analytical Sciences. APC-conjugated anti-GST antibody is from Prozyme.
Six microliters of GST-PLK1 (3 ug/mL) in Kinase Assay Buffer are then added and the solution incubated at 37° C. for 35 minutes. Six microliters of solution containing 43 mM EDTA to stop the reaction and a 1:600 dilution of anti-phospho-p53 antibody in 20 mM HEPES pH 7, 50 mM NaCl, and 0.5 mg/mL BSA (Antibody Binding Buffer) are added and the solution incubated at 37° C. for 30 minutes. […] The HTRF signal is read on an Envision reader from PerkinElmer Life and Analytical Sciences.

T1 sequence (P53350 whole entry): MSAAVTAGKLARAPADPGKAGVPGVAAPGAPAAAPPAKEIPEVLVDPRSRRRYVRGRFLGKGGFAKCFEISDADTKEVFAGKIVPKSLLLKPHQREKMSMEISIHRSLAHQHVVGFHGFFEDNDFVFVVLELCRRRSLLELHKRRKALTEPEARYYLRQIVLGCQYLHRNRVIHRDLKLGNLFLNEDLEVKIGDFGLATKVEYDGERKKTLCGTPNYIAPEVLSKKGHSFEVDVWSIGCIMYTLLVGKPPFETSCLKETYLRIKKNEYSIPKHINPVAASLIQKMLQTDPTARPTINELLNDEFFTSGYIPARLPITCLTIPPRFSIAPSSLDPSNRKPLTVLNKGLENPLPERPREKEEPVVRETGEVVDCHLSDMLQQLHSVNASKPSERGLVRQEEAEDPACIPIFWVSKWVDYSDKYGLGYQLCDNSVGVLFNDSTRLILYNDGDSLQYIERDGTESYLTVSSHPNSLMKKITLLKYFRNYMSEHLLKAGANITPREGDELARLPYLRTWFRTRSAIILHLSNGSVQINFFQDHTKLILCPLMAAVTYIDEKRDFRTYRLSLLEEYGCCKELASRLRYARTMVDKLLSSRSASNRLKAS

SMILES	IC50
CN1C(=O)C(F)(F)CN(C2CCC2)c2nc(Nc3ccc(C(=O)O)cc3)ncc21 [Example I-11, 4-(9-cyclobutyl-7,7-difluoro-5-methyl-6-oxo-6,7,8,9-tetrahydro-5H-pyrimido[4,5-b][1,4]diazepin-2-ylamino)-benzoic acid]	0.051 to 0.5 µM
CN1C(=O)C(F)(F)CN(C2CCC2)c2nc(Nc3ccc(C(N)=O)cc3)ncc21 [Example I-12, 4-(9-cyclobutyl-7,7-difluoro-5-methyl-6-oxo-6,7,8,9-tetrahydro-5H-pyrimido[4,5-b][1,4]diazepin-2-ylamino)-benzamide]	0.051 to 0.5 µM
CNC(=O)c1ccc(Nc2ncc3c(n2)N(C2CCC2)CC(F)(F)C(=O)N3C)cc1 [Example I-13, 4-(9-cyclobutyl-7,7-difluoro-5-methyl-6-oxo-6,7,8,9-tetrahydro-5H-pyrimido[4,5-b][1,4]diazepin-2-ylamino)-N-methyl-benzamide]	0.051 to 0.5 µM
CN1C(=O)C(F)(F)CN(C2CCC2)c2nc(Nc3ccc(C(=O)N4CCC(N)CC4)cc3)ncc21 [Example I-15, 2-[4-(4-amino-piperidine-1-carbonyl)-phenylamino]-9-cyclobutyl-7,7-difluoro-5-methyl-5,7,8,9-tetrahydro-pyrimido[4,5-b][1,4]diazepin-6-one]	0.051 to 0.5 µM
COc1cc(C(=O)NCCO)ccc1Nc1ncc2c(n1)N(C1CCCC1)CC(F)(F)C(=O)N2C [Example I-30, 4-(9-cyclopentyl-7,7-difluoro-5-methyl-6-oxo-6,7,8,9-tetrahydro-5H-pyrimido[4,5-b][1,4]diazepin-2-ylamino)-N-(2-hydroxy-ethyl)-3-methoxy-benzamide]	0.001 to 0.05 µM
COc1cc(C(=O)NCC(F)(F)F)ccc1Nc1ncc2c(n1)N(C1CCCC1)CC(F)(F)C(=O)N2C [Example I-31, 4-(9-cyclopentyl-7,7-difluoro-5-methyl-6-oxo-6,7,8,9-tetrahydro-5H-pyrimido[4,5-b][1,4]diazepin-2-ylamino)-3-methoxy-N-(2,2,2-trifluoro-ethyl)-benzamide]	0.001 to 0.05 µM
COc1cc(C(=O)NCC2CCCCC2)ccc1Nc1ncc2c(n1)N(C1CCCC1)CC(F)(F)C(=O)N2C [Example I-32, N-cyclohexylmethyl-4-(9-cyclopentyl-7,7-difluoro-5-methyl-6-oxo-6,7,8,9-tetrahydro-5H-pyrimido[4,5-b][1,4]diazepin-2-ylamino)-3-methoxy-benzamide]	0.051 to 0.5 µM
COc1cc(C(=O)NCc2ccsc2)ccc1Nc1ncc2c(n1)N(C1CCCC1)CC(F)(F)C(=O)N2C [Example I-33, 4-(9-cyclopentyl-7,7-difluoro-5-methyl-6-oxo-6,7,8,9-tetrahydro-5H-pyrimido[4,5-b][1,4]diazepin-2-ylamino)-3-methoxy-N-thiophen-3-ylmethyl-benzamide]	0.051 to 0.5 µM
COc1cc(C(=O)NCc2ccoc2)ccc1Nc1ncc2c(n1)N(C1CCCC1)CC(F)(F)C(=O)N2C [Example I-34, 4-(9-cyclopentyl-7,7-difluoro-5-methyl-6-oxo-6,7,8,9-tetrahydro-5H-pyrimido[4,5-b][1,4]diazepin-2-ylamino)-N-furan-3-ylmethyl-3-methoxy-benzamide]	0.001 to 0.05 µM
COc1cc(C(=O)NCc2ccccc2)ccc1Nc1ncc2c(n1)N(C1CCCC1)CC(F)(F)C(=O)N2C [Example I-35, N-benzyl-4-(9-cyclopentyl-7,7-difluoro-5-methyl-6-oxo-6,7,8,9-tetrahydro-5H-pyrimido[4,5-b][1,4]diazepin-2-ylamino)-3-methoxy-benzamide]	0.051 to 0.5 µM
COc1cc(C(=O)NCc2ccc(C(F)(F)F)cc2)ccc1Nc1ncc2c(n1)N(C1CCCC1)CC(F)(F)C(=O)N2C [Example I-36, 4-(9-cyclopentyl-7,7-difluoro-5-methyl-6-oxo-6,7,8,9-tetrahydro-5H-pyrimido[4,5-b][1,4]diazepin-2-ylamino)-3-methoxy-N-(4-trifluoromethyl-benzyl)-benzamide]	0.5 to 5 µM
COc1cc(C(=O)Nc2ccccc2)ccc1Nc1ncc2c(n1)N(C1CCCC1)CC(F)(F)C(=O)N2C [Example I-38, 4-(9-cyclopentyl-7,7-difluoro-5-methyl-6-oxo-6,7,8,9-tetrahydro-5H-pyrimido[4,5-b][1,4]diazepin-2-ylamino)-3-methoxy-N-phenyl-benzamide]	0.051 to 0.5 µM
COc1cc(C(=O)NCCCCO)ccc1Nc1ncc2c(n1)N(C1CCCC1)CC(F)(F)C(=O)N2C [Example I-39, 4-(9-cyclopentyl-7,7-difluoro-5-methyl-6-oxo-6,7,8,9-tetrahydro-5H-pyrimido[4,5-b][1,4]diazepin-2-ylamino)-N-(4-hydroxy-butyl)-3-methoxy-benzamide]	0.001 to 0.05 µM

The next lines start with the values.

IC50	SMILES
0.001 to 0.05 µM	COc1cc(C(=O)NCCCN(C)C)ccc1Nc1ncc2c(n1)N(C1CCC1)CC(F)(F)C(=O)N2C [Example I-9, 4-(9-cyclobutyl-7,7-difluoro-5-methyl-6-oxo-6,7,8,9-tetrahydro-5H-pyrimido[4,5-b][1,4]diazepin-2-ylamino)-N-(3-dimethylamino-propyl)-3-methoxy-benzamide]
0.001 to 0.05 µM	CCN1CCC(NC(=O)c2ccc(Nc3ncc4c(n3)N(C3CCC3)CC(F)(F)C(=O)N4C)c(OC)c2)CC1 [Example I-10, 4-(9-cyclobutyl-7,7-difluoro-5-methyl-6-oxo-6,7,8,9-tetrahydro-5H-pyrimido[4,5-b][1,4]diazepin-2-ylamino)-N-(1-ethyl-piperidin-4-yl)-3-methoxy-benzamide]
0.001 to 0.05 µM	CN1C(=O)C(F)(F)CN(C2CCC2)c2nc(Nc3ccc(C(=O)NC4CCNCC4)cc3)ncc21 [Example I-14, 4-(9-cyclobutyl-7,7-difluoro-5-methyl-6-oxo-6,7,8,9-tetrahydro-5H-pyrimido[4,5-b][1,4]diazepin-2-ylamino)-N-piperidin-4-yl-benzamide]
0.001 to 0.05 µM	CN1CCC(NC(=O)c2ccc(Nc3ncc4c(n3)N(C3CCC3)CC(F)(F)C(=O)N4C)cc2)CC1 [Example I-16, 4-(9-cyclobutyl-7,7-difluoro-5-methyl-6-oxo-6,7,8,9-tetrahydro-5H-pyrimido[4,5-b][1,4]diazepin-2-ylamino)-N-(1-methyl-piperidin-4-yl)-benzamide]
0.001 to 0.05 µM	CN1C(=O)C(F)(F)CN(C2CCC2)c2nc(Nc3ccc(C(=O)NC4CCOCC4)cc3)ncc21 [Example I-17, 4-(9-cyclobutyl-7,7-difluoro-5-methyl-6-oxo-6,7,8,9-tetrahydro-5H-pyrimido[4,5-b][1,4]diazepin-2-ylamino)-N-(tetrahydro-pyran-4-yl)-benzamide]
0.001 to 0.05 µM	CN(C)CCNC(=O)c1ccc(Nc2ncc3c(n2)N(C2CCC2)CC(F)(F)C(=O)N3C)cc1 [Example I-18, 4-(9-cyclobutyl-7,7-difluoro-5-methyl-6-oxo-6,7,8,9-tetrahydro-5H-pyrimido[4,5-b][1,4]diazepin-2-ylamino)-N-(2-dimethylamino-ethyl)-benzamide]
0.001 to 0.05 µM	CN(C)CCCNC(=O)c1ccc(Nc2ncc3c(n2)N(C2CCC2)CC(F)(F)C(=O)N3C)cc1 [Example I-19, 4-(9-cyclobutyl-7,7-difluoro-5-methyl-6-oxo-6,7,8,9-tetrahydro-5H-pyrimido[4,5-b][1,4]diazepin-2-ylamino)-N-(3-dimethylamino-propyl)-benzamide]
0.001 to 0.05 µM	COc1cc(C(N)=O)ccc1Nc1ncc2c(n1)N(C1CCCC1)CC(F)(F)C(=O)N2C [Example I-23, 4-(9-cyclopentyl-7,7-difluoro-5-methyl-6-oxo-6,7,8,9-tetrahydro-5H-pyrimido[4,5-b][1,4]diazepin-2-ylamino)-3-methoxy-benzamide]
0.001 to 0.05 µM	CNC(=O)c1ccc(Nc2ncc3c(n2)N(C2CCCC2)CC(F)(F)C(=O)N3C)c(OC)c1 [Example I-24, 4-(9-cyclopentyl-7,7-difluoro-5-methyl-6-oxo-6,7,8,9-tetrahydro-5H-pyrimido[4,5-b][1,4]diazepin-2-ylamino)-3-methoxy-N-methyl-benzamide]
0.001 to 0.05 µM	COc1cc(C(=O)NC(C)C)ccc1Nc1ncc2c(n1)N(C1CCCC1)CC(F)(F)C(=O)N2C [Example I-25, 4-(9-cyclopentyl-7,7-difluoro-5-methyl-6-oxo-6,7,8,9-tetrahydro-5H-pyrimido[4,5-b][1,4]diazepin-2-ylamino)-N-isopropyl-3-methoxy-benzamide]
0.001 to 0.05 µM	COc1cc(C(=O)NC2CC2)ccc1Nc1ncc2c(n1)N(C1CCCC1)CC(F)(F)C(=O)N2C [Example I-26, 4-(9-cyclopentyl-7,7-difluoro-5-methyl-6-oxo-6,7,8,9-tetrahydro-5H-pyrimido[4,5-b][1,4]diazepin-2-ylamino)-N-cyclopropyl-3-methoxy-benzamide]
0.001 to 0.05 µM	COc1cc(C(=O)NC2CCCCC2)ccc1Nc1ncc2c(n1)N(C1CCCC1)CC(F)(F)C(=O)N2C [Example I-27, N-cyclohexyl-4-(9-cyclopentyl-7,7-difluoro-5-methyl-6-oxo-6,7,8,9-tetrahydro-5H-pyrimido[4,5-b][1,4]diazepin-2-ylamino)-3-methoxy-benzamide]
0.001 to 0.05 µM	COCCNC(=O)c1ccc(Nc2ncc3c(n2)N(C2CCCC2)CC(F)(F)C(=O)N3C)c(OC)c1 [Example I-28, 4-(9-cyclopentyl-7,7-difluoro-5-methyl-6-oxo-6,7,8,9-tetrahydro-5H-pyrimido[4,5-b][1,4]diazepin-2-ylamino)-3-methoxy-N-(2-methoxy-ethyl)-benzamide]
0.001 to 0.05 µM	COCCCNC(=O)c1ccc(Nc2ncc3c(n2)N(C2CCCC2)CC(F)(F)C(=O)N3C)c(OC)c1 [Example I-29, 4-(9-cyclopentyl-7,7-difluoro-5-methyl-6-oxo-6,7,8,9-tetrahydro-5H-pyrimido[4,5-b][1,4]diazepin-2-ylamino)-3-methoxy-N-(3-methoxy-propyl)-benzamide]
